Among the data in US8722661B2, “Pyrrolopyrimidone and pyrrolopyridone inhibitors of tankyrase” (Genentech, Inc., priority 2012, dated 2014) are IC50 values, retold here.

The target of the assay is T1, Tankyrase 1 (Homo sapiens, UniProt O95271).
T1 sequence (O95271 1-1327): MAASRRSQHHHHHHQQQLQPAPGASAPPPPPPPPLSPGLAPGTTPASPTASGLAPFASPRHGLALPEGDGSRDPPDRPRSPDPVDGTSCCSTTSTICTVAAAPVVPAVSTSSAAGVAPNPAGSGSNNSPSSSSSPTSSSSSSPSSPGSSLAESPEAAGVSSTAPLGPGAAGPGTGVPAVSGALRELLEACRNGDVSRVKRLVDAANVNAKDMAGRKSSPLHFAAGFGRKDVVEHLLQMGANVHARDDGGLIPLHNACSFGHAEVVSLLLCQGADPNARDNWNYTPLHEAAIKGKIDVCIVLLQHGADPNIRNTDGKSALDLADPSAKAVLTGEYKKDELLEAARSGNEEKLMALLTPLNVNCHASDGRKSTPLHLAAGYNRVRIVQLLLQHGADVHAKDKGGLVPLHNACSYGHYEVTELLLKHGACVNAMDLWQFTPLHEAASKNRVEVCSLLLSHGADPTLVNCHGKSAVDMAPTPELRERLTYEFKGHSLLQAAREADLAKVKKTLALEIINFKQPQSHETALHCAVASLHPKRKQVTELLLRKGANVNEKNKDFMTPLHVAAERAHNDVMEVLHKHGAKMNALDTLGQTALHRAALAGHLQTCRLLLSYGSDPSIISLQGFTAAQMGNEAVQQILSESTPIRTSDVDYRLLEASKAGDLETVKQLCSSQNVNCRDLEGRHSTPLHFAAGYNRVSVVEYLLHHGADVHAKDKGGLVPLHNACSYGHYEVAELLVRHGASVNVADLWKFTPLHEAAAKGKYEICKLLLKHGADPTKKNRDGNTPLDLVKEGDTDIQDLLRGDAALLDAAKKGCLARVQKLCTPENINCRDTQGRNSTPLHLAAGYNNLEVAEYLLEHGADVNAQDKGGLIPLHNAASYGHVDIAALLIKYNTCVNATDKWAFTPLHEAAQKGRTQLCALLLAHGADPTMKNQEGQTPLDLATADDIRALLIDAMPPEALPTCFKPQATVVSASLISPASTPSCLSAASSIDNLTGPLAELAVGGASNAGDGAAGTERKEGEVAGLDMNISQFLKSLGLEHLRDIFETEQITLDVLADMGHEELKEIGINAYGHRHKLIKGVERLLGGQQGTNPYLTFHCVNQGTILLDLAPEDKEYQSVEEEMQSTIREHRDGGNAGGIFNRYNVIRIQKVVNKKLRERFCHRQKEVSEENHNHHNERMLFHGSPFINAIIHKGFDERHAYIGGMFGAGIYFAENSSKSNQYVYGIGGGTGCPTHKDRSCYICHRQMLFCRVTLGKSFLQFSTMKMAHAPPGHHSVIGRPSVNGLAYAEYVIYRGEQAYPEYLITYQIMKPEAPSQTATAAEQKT
Briefly: TNKS1 NAM assay (NADase activity, released nicotinamide by LC-MS). It is filed as biochemical. Particulars: Table I, value marked with superscript 2 (footnote not given), taken as the second assay. Here is the method: NADase activity of Tankyrase 1 was measured by quantifying released nicotinamide using liquid chromatography mass spectrometry. Varying concentrations of experimental compounds were incubated in 10 μL reactions containing 25 nM recombinant Tankyrase 1, 1 mM NAD+, 5 μM d4-nicotinamide internal standard, 2% DMSO, 50 mM Tris pH 7.5, 5 mM CaCl2, and 0.01% Triton X-100 for 1 h at RT. Reactions were quenched by mixing 2 μL of the reaction mixture with 98 μL of 0.05% formic acid. 1 μL of quenched reaction was loaded onto a reverse phase BEH-Phenyl column (Waters) pre-equilibrated with 1 mM ammonium formate and eluted with a linear gradient to 80% acetonitrile. Compound IC50s were determined by four-parameter curve fitting.
Representative compound data for assays are listed below in Table I. Values are in uM.

What is called IC50 is the concentration needed to halve the response being measured. `COCCOc1cc(F)c(N2CCN(c3nc4c(ccn4CCO)c(=O)[nH]3)CC2)c(F)c1` [Example 63, 2-[4-[2 6-difluoro-4-(2-methoxyethoxy)phenyl]piperazin-1-yl]-7-(2-hydroxyethyl)-3H-pyrrolo[2,3-d]pyrimidin-4-one]: the IC50 was found to be 9.67 nM.
